From the NIST ThermoML archive (doi:10.1021/je5010214)

Conditions: Liquid, Vibrating tube method

CCCCO [butan-1-ol]
Conditions	mass density [kg/m3]
343.15 K, 44927 kPa	804.186
343.15 K, 47908 kPa	806.033
343.15 K, 50059 kPa	807.349
343.15 K, 52026 kPa	808.534
343.15 K, 59944 kPa	813.181
343.15 K, 61967 kPa	814.212
343.15 K, 65070 kPa	815.911
343.15 K, 66059 kPa	816.518
343.16 K, 34034 kPa	797.101
343.16 K, 54919 kPa	810.24
343.16 K, 57986 kPa	812.021
348.15 K, 88.8 kPa	765.578
348.15 K, 462.2 kPa	765.945
348.15 K, 859.8 kPa	766.355
348.15 K, 974.2 kPa	766.465
348.15 K, 1974.9 kPa	767.461
348.15 K, 3051.1 kPa	768.513
348.15 K, 5094 kPa	770.529
348.15 K, 10025 kPa	775.087
348.15 K, 14792 kPa	779.258
348.15 K, 20111 kPa	783.649
348.15 K, 22163 kPa	785.27
348.15 K, 28080 kPa	789.8
348.15 K, 30149 kPa	791.333
348.15 K, 32161 kPa	792.797
348.15 K, 33959 kPa	793.985
348.15 K, 35045 kPa	794.751
348.15 K, 37937 kPa	796.729
348.15 K, 40026 kPa	798.192
348.15 K, 42066 kPa	799.57
348.15 K, 47915 kPa	803.304
348.15 K, 49950 kPa	804.611
348.15 K, 52167 kPa	805.991
348.15 K, 55022 kPa	807.759
348.15 K, 57945 kPa	809.531
348.15 K, 60030 kPa	810.761
348.15 K, 64942 kPa	813.608
348.15 K, 66153 kPa	814.319
348.16 K, 291.7 kPa	765.77
348.16 K, 7050.2 kPa	772.352
348.16 K, 9003.2 kPa	774.145
348.16 K, 12187 kPa	777.001
348.16 K, 17899 kPa	781.843
348.16 K, 25100 kPa	787.55
348.16 K, 32942 kPa	793.364
348.16 K, 45051 kPa	801.465
348.16 K, 62063 kPa	811.961
353.15 K, 86.2 kPa	760.995
353.15 K, 336 kPa	761.273
353.15 K, 572.6 kPa	761.533
353.15 K, 926 kPa	761.914
353.15 K, 1016.4 kPa	762.008
353.15 K, 2992.1 kPa	764.106
353.15 K, 4963.9 kPa	766.051
353.15 K, 7000.9 kPa	768.126
353.15 K, 9062.3 kPa	770.136
353.15 K, 10005 kPa	771.015
353.15 K, 12128 kPa	772.98
353.15 K, 14954 kPa	775.544
353.15 K, 17977 kPa	778.173
353.15 K, 19937 kPa	779.792
353.15 K, 21894 kPa	781.405
353.15 K, 24908 kPa	783.869
353.15 K, 27850 kPa	786.199
353.15 K, 29936 kPa	787.797
353.15 K, 31876 kPa	789.263
353.15 K, 32961 kPa	790.048
353.15 K, 34945 kPa	791.423
353.15 K, 37913 kPa	793.571
353.15 K, 40143 kPa	795.172
353.15 K, 42067 kPa	796.559
353.15 K, 45002 kPa	798.55
353.15 K, 48029 kPa	800.525
353.15 K, 50145 kPa	801.944
353.15 K, 52082 kPa	803.184
353.15 K, 55132 kPa	805.077
353.15 K, 57980 kPa	806.879
353.15 K, 60098 kPa	808.146
